Test results published in patent US20230218632A1, “CYCLIC SULFONAMIDE DERIVATIVES AS TRAP1 MODULATORS AND USES THEREOF” (Amathus Therapeutics, Inc., priority 2020, published 2023).

Biological target: T1, TRAP1 enzyme (Homo sapiens, UniProt Q12931)
T1 sequence (Q12931 60-704): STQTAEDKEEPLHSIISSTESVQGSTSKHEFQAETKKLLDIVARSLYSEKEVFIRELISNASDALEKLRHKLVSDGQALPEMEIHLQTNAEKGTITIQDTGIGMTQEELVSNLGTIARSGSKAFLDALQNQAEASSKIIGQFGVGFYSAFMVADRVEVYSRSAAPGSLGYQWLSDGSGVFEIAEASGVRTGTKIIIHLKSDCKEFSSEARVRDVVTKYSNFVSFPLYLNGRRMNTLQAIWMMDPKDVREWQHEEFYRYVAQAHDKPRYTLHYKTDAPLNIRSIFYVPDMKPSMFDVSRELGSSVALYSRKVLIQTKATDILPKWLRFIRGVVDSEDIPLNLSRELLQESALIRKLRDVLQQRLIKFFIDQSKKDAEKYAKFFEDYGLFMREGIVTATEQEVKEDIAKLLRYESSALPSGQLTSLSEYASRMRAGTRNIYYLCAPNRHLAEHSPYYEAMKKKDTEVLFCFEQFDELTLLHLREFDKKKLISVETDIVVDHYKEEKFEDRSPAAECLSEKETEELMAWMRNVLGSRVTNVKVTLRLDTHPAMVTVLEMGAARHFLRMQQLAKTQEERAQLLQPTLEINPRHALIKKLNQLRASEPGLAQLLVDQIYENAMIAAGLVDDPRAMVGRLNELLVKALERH
Assay: ADP Glo assay (ATPase activity of TRAP1)
Format: biochemical
Conditions: for EC50: 150 nM Trap1, 20 µM ATP, concentration for half maximal activation, read-out: ADP GLO DRC: GeoMean EC50; for Emax: read-out: ADP GLO DRC: Mean Emax
Experimental: Potency of test compounds to modulate the ATPase activity of TRAP1 enzyme was evaluated using ADP Glo assay. The assay is based on quantification of the ADP generated from ATP in the ATPase reaction. The assay is performed in two steps; first, after the ATPase reaction, an equal volume of ADP-Glo™ Reagent is added to terminate the ATPase reaction and deplete the remaining ATP. Second, the Kinase Detection Reagent is added to simultaneously convert ADP to ATP and allow the newly synthesized ATP to be measured using a luciferase/luciferin reaction.
All the assays were carried out in a 384-well Proxiplate. The buffer used was 25 mM Pipes pH-7.5, 40 mM KCl, 0.05 mM MgCl2, 0.025 % BSA, 0.316 mM EGTA, 0.003% Empigen, 0.01% Igepal. 150 nM Trap1 enzyme was incubated with various concentrations of the test compound (0.79 µM - 100 µM) at 37° C. for 30 mins (except in blank wells). 20 µM ATP was added to each well to start the reaction. The plate was spun for 1 min at 1200 rpm and then incubated at 37° C. for 60 mins. 5 µl of ADP Glo reagent was added to all the wells and spun the plate for 1 min at 1200 rpm and kept it on a shaker at ambient temperature for 60 mins. 10 µl of kinase detection mix was added to all the wells and the plate was read for Luminescence at 495 nm. The amount of ADP released was estimated from ATP/ADP standard curve generated at the same experimental conditions. Emax (Maximal percent activation) and EC50 (concentration for half maximal activation ) were estimated by fitting the dose response data to a sigmoidal curve fitting equation using Graphpad Prism software V. 8.

| Compound | EC50 | Emax (maximal percent activation) | ADP GLO DRC: Mean Emax (maximal percent activation) |
| --- | --- | --- | --- |
| CCc1ncccc1C(=O)Nc1ccc2c(c1)S(=O)(=O)N(c1ccc(C(F)(F)F)cc1)CCO2 [Compound 2344] | < 20 µM | 150 to 200% | – |
| CCn1cncc1C(=O)Nc1ccc2c(c1)S(=O)(=O)N(c1ccc(C(F)(F)F)cc1)CCO2 [Compound 2213] | < 20 µM | 150 to 200% | – |
| Cn1c(C(=O)Nc2ccc3c(c2)S(=O)(=O)N(c2ccc(C(F)(F)F)cc2)CCO3)cccc1=O [Compound 2221] | 30 to 100 µM | 150 to 200% | – |
| COCc1oncc1C(=O)Nc1ccc2c(c1)S(=O)(=O)N(c1ccc(C(F)(F)F)cc1)CCO2 [Compound 2257] | 30 to 100 µM | 150 to 200% | – |
| COc1cnccc1C(=O)Nc1ccc2c(c1)S(=O)(=O)N(c1ccc(C(F)(F)F)cc1)CCO2 [Compound 2209] | 20 to 30 µM | 129 to 149% | – |
| Cc1ccncc1C(=O)Nc1ccc2c(c1)S(=O)(=O)N(c1ccc(Cl)cc1)CCO2 [Compound 1209, N-(2-(4-chlorophenyl)-1,1-Dioxido-3,4-Dihydro-2H-Benzo[b][1,4,5] Oxathiazepin-8-yl)-4-Methylnicotinamide] | 30 to 100 µM | 150 to 200% | – |
| Cc1ncncc1C(=O)Nc1ccc2c(c1)S(=O)(=O)N(c1ccc(C(F)(F)F)cc1)CCO2 [Compound 2206] | 30 to 100 µM | 150 to 200% | – |
| Cc1cc(C(=O)Nc2ccc3c(c2)S(=O)(=O)N(c2ccc(C(F)(F)F)cc2)CCO3)n(C)n1 [Compound 2339] | < 20 µM | 129 to 149% | – |
| Cc1cc(C(=O)Nc2cnc3c(c2)S(=O)(=O)N(c2ccc(C(F)(F)F)cc2)CCO3)cc(C)n1 [Compound 2515] | 20 to 30 µM | > 200% | – |
| Cc1ccc(N2CCOc3ccc(NC(=O)c4ncoc4C)cc3S2(=O)=O)cc1 [Compound 2362] | 30 to 100 µM | 150 to 200% | – |
| Cc1cc(C(=O)Nc2ccc3c(c2)S(=O)(=O)N(c2ccc(C(F)(F)F)cc2)CCO3)ccn1 [Compound 2172] | 20 to 30 µM | 150 to 200% | – |
| COc1ncncc1C(=O)Nc1ccc2c(c1)S(=O)(=O)N(c1ccc(C(F)(F)F)cc1)CCO2 [Compound 2245] | 20 to 30 µM | 129 to 149% | – |
| O=C(Nc1ccc2c(c1)S(=O)(=O)N(c1ccc(C(F)(F)F)cc1)CCO2)c1cnccc1F [Compound 2264] | 20 to 30 µM | 129 to 149% | – |
| CCn1nccc1C(=O)Nc1ccc2c(c1)S(=O)(=O)N(c1ccc(C(F)(F)F)cc1)CCO2 [Compound 2254] | < 20 µM | 129 to 149% | – |
| O=C(Nc1ccc2c(c1)S(=O)(=O)N(c1ccc(C(F)(F)F)cc1)CCO2)c1ccncn1 [Compound 2175] | < 20 µM | 129 to 149% | – |
| O=C(Nc1ccc2c(c1)S(=O)(=O)N(c1ccc(C(F)(F)F)cc1)CCO2)c1cocn1 [Compound 1976, N-(1,1-Dioxido-2-(4-(Trifluoromethyl)Phenyl)-3,4-Dihydro-2H-Benzo[b][1,4,5]Oxathiazepin-8-yl)Oxazole-4-Carboxamide] | 30 to 100 µM | 150 to 200% | – |
| Cn1ccc(C(=O)Nc2ccc3c(c2)S(=O)(=O)N(c2ccc(C(F)(F)F)cc2)CCO3)n1 [Compound 2294] | < 20 µM | 150 to 200% | – |
| Cc1oncc1C(=O)Nc1ccc2c(c1)S(=O)(=O)N(c1ccc(C(F)(F)F)cc1)CCO2 [Compound 2345] | 30 to 100 µM | 150 to 200% | – |
| Cc1cc(C(=O)Nc2ccc3c(c2)S(=O)(=O)N(c2ccc(C(F)(F)F)cc2)CCO3)cc(C)n1 [Compound 2173] | < 20 µM | – | B (150-200%, inclusive) |
| Cc1cnc(C(=O)Nc2ccc3c(c2)S(=O)(=O)N(c2ccc(C(F)(F)F)cc2)CCO3)nc1 [Compound 2210] | < 20 µM | 150 to 200% | – |
| Cc1ocnc1C(=O)Nc1ccc2c(c1)S(=O)(=O)N(c1ccc(F)cc1)CCO2 [Compound 2375, N-(2-(4-fluorophenyl)-1,1-dioxido-3,4-dihydro-2H-benzo[b][1,4,5]oxathiazepin-8-yl)-5-methyloxazole-4-carboxamide] | 30 to 100 µM | 150 to 200% | – |
